Assay results reported in BindingDB's records for doi:10.1021/ja0296733 (Abbott Laboratories, 2003).
pKi: −log10 of the molar value.

Tests used:
[1] = target: T1, Tyrosine-protein phosphatase non-receptor type 1 [1-298] (Homo sapiens, UniProt P18031); assay: PTP1B and TCPTP Inhibition Assay; details: pH 7.5; 22 °C
T1 construct: 1-298
T1 sequence (P18031 whole entry): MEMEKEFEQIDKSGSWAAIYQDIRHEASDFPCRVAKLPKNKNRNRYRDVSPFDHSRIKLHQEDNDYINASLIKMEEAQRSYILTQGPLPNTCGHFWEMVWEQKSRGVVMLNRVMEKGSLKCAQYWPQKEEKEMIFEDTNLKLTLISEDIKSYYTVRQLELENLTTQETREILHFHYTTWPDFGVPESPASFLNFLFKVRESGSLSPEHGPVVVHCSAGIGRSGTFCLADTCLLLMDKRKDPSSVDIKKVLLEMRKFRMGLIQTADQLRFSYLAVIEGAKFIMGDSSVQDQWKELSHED
Method: (§1) For each concentration of test compound or DMSO control, the initial rates were used to fit the rectangular hyperbola of Michaelis-Menten by nonlinear regression analysis. The ratio of the apparent Km/Vmax vs inhibitor concentration was plotted, and the Ki was calculated by linear regression to be the negative X-intercept.

[2] = target: T2, Tyrosine-protein phosphatase non-receptor type 2 (Homo sapiens, UniProt P17706); assay: PTP1B and TCPTP Inhibition Assay; details: pH 7.5; 22 °C
T2 sequence (P17706 whole entry): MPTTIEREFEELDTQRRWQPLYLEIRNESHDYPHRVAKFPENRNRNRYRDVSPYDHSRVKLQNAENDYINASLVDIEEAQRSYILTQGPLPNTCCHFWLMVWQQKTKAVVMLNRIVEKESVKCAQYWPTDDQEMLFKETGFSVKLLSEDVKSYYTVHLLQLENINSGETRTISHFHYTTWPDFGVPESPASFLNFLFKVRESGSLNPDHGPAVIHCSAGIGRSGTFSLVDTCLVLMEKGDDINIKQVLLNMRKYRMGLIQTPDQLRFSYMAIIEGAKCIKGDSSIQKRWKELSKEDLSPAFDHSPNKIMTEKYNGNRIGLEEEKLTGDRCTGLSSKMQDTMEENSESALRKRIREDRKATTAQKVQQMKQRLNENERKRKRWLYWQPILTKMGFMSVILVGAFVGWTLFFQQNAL
Method: as §1

Compound	pKi [1]	pKi [2]
Cc1cccc(N(C(=O)C(=O)O)c2ccccc2C(=O)O)c1C	3.53	3.79
CC(=O)N[C@@H](Cc1ccc(N(C(=O)C(=O)O)c2ccccc2C(=O)O)c2ccccc12)C(=O)NCCCCCOc1cc2ccccc2cc1C(=O)O [3-({5-[(N-Acetyl-3-{4-[(carboxycarbonyl)(2-carboxyphenyl)amino]-1-naphthyl}-L-alanyl)amino]pentyl}oxy)-2-naphthoic Acid]	–	7.31
O=C(O)C(=O)N(c1ccccc1C(=O)O)c1cccc2ccccc12 [2-(Naphthalen-1-yloxalylamino)benzoic Acid]	–	4.36
